Data published in ChEMBL document CHEMBL5465560, “Selectivity Literature for EUbOPEN Chemogenomic Library” (2024).

Tests used:
[1] = target: TGF-beta receptor type-2 (Homo sapiens) (UniProt P37173); assay: Selectivity interaction (KinomeScan (DiscoverX)) EUB0001079a TGFBR2; settings: at 1 µM
[2] = target: Serine/threonine-protein kinase 38-like (Homo sapiens) (UniProt Q9Y2H1); assay: Selectivity interaction (ActivX KiNativ screen (ex vivo kinase selectivity in human PBMCs)) EUB0001619a STK38L; assay type: cell-based; settings: PBMC, at 1 µM
Sequence of Serine/threonine-protein kinase 38-like (Homo sapiens) (Q9Y2H1 2-464 limits assumed): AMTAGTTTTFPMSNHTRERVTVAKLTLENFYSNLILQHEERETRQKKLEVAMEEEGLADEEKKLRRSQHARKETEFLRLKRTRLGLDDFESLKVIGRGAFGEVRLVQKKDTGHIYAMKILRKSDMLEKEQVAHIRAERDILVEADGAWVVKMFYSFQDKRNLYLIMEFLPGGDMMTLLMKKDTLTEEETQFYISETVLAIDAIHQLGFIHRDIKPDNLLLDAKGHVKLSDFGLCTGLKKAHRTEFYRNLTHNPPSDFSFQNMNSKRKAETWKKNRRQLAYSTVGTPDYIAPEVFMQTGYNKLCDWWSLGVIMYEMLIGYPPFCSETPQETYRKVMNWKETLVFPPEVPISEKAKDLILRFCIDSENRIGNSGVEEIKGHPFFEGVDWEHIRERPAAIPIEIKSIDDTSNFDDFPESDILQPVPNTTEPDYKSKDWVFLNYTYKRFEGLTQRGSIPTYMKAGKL

[3] = target: T1, Mitogen-activated protein kinase kinase kinase kinase 2 (Homo sapiens) (UniProt Q12851); assay: Selectivity interaction (ActivX KiNativ screen (ex vivo kinase selectivity in human PBMCs)) EUB0001619a MAP4K2; assay type: cell-based; settings: PBMC, at 1 µM
T1 sequence (whole entry): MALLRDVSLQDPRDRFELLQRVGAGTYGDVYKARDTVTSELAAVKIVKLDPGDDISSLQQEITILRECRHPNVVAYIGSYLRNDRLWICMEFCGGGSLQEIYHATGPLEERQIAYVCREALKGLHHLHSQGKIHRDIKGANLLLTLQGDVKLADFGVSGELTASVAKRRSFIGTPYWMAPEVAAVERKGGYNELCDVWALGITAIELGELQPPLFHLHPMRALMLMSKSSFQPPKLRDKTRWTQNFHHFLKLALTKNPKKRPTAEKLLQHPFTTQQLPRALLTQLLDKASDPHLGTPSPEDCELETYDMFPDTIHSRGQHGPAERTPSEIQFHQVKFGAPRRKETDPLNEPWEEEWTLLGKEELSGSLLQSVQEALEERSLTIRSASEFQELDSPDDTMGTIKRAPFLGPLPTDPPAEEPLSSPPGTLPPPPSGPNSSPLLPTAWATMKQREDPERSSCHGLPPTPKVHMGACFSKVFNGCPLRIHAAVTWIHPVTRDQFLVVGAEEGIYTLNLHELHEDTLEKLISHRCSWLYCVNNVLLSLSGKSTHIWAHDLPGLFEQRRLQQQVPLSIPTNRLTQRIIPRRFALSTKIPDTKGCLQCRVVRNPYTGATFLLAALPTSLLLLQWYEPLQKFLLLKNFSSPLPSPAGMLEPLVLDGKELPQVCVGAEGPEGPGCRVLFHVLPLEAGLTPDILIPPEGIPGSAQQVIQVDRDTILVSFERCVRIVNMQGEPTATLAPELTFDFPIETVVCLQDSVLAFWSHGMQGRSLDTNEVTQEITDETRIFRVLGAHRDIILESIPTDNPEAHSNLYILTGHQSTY

[4] = target: Interleukin-1 receptor-associated kinase 1 (Homo sapiens) (UniProt P51617); assay: Selectivity interaction (KinomeScan (DiscoverX)) EUB0001619a IRAK1; settings: at 1 µM
Sequence of Interleukin-1 receptor-associated kinase 1 (Homo sapiens) (P51617 whole entry, looked up): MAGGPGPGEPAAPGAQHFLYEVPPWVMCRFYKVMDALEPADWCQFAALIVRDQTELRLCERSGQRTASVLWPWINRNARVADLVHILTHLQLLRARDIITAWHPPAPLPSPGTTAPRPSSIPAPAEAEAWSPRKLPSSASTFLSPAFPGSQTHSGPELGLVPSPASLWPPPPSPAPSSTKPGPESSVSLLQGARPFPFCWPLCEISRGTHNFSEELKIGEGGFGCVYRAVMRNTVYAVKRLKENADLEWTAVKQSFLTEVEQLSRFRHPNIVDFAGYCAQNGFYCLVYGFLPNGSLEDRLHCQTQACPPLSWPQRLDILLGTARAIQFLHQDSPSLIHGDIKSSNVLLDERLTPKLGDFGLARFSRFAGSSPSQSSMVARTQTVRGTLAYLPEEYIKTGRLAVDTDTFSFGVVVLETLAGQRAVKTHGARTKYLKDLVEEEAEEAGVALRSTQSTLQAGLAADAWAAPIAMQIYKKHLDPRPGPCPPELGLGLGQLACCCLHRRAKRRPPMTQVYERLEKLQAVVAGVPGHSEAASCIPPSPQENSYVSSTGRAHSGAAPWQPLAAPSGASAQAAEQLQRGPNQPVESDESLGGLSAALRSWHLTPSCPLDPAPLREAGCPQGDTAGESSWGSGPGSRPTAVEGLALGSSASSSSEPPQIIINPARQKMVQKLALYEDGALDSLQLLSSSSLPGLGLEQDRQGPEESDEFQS

[5] = target: Ephrin type-A receptor 5 (Homo sapiens) (UniProt P54756); assay: Selectivity interaction (Upstate Kinase Profiler service (Millipore)) EUB0000056c EPHA5; settings: at 1 µM
[6] = target: Serine/threonine-protein kinase 38 (Homo sapiens) (UniProt Q15208); assay: Selectivity interaction (ActivX KiNativ screen (kinase selectivity in THP-1 cell lysates)) EUB0000639a STK38; assay type: subcellular; settings: lysate, at 5 µM
Sequence of Serine/threonine-protein kinase 38 (Homo sapiens) (Q15208 2-465 limits assumed): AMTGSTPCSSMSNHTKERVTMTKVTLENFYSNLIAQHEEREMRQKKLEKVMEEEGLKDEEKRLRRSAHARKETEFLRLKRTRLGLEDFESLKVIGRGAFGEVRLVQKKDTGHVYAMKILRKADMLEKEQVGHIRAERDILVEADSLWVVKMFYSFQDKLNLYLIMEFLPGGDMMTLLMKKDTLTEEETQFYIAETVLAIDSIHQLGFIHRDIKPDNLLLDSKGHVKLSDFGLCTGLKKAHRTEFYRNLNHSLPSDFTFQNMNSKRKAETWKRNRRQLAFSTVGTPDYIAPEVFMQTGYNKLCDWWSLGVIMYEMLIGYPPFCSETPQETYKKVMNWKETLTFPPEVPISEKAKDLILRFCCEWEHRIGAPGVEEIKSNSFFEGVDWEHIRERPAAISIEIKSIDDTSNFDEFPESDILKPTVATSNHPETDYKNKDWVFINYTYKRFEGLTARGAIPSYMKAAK

[7] = target: T2, Mitogen-activated protein kinase kinase kinase 12 (Homo sapiens) (UniProt Q12852); assay: Selectivity interaction (KinomeScan (DiscoverX)) EUB0000229b MAP3K12; settings: at 10 µM
T2 sequence (whole entry): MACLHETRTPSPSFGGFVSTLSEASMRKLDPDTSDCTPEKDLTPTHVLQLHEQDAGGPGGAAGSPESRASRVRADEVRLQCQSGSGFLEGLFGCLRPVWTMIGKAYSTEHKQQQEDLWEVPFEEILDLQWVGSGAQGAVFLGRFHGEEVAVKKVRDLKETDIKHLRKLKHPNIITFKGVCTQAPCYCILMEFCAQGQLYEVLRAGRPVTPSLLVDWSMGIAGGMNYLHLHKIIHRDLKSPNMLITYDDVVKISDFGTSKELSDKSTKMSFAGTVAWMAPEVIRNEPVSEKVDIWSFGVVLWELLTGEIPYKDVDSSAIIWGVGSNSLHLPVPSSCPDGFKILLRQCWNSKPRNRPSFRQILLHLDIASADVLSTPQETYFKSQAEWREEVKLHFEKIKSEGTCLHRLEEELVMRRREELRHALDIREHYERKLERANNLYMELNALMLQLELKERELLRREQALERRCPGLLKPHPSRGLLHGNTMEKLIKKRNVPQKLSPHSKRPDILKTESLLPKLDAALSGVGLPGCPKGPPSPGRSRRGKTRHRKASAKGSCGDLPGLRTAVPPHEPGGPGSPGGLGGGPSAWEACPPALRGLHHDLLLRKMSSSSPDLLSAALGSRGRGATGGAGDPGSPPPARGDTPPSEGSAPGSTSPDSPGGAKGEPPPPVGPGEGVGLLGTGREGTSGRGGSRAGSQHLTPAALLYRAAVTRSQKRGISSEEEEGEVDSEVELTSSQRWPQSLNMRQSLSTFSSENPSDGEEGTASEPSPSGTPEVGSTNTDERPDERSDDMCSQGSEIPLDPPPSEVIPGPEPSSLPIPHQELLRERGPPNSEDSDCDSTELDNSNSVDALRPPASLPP

[8] = target: Mitogen-activated protein kinase kinase kinase 20 (Homo sapiens) (UniProt Q9NYL2); assay: Selectivity interaction (KinomeScan (DiscoverX)) EUB0001049a MAP3K20; settings: at 1 µM
Sequence of Mitogen-activated protein kinase kinase kinase 20 (Homo sapiens) (Q9NYL2 2-800 limits assumed): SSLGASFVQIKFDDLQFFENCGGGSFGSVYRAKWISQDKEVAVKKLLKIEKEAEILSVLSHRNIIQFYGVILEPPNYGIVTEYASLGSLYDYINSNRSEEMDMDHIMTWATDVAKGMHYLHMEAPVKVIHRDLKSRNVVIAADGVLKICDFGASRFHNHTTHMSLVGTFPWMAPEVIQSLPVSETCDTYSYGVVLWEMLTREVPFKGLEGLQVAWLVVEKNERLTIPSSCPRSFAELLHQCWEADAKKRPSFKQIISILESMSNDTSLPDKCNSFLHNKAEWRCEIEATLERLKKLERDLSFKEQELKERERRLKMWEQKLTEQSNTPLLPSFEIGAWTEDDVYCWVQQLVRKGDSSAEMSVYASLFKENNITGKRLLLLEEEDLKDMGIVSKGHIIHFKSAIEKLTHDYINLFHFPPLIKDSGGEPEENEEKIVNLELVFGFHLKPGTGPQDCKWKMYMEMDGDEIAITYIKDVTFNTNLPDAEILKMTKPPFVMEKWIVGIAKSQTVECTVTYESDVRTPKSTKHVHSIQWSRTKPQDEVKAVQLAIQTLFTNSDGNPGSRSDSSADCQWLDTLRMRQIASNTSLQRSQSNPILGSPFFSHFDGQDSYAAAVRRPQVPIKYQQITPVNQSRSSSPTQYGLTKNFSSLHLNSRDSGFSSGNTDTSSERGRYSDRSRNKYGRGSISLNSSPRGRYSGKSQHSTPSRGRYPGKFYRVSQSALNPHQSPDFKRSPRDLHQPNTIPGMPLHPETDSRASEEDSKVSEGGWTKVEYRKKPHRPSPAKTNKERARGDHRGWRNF

[9] = target: Serine/threonine-protein kinase OSR1 (Homo sapiens) (UniProt O95747); assay: Selectivity interaction (KinomeScan (DiscoverX)) EUB0001049a OXSR1; settings: at 1 µM
Sequence of Serine/threonine-protein kinase OSR1 (Homo sapiens) (O95747 2-527 limits assumed): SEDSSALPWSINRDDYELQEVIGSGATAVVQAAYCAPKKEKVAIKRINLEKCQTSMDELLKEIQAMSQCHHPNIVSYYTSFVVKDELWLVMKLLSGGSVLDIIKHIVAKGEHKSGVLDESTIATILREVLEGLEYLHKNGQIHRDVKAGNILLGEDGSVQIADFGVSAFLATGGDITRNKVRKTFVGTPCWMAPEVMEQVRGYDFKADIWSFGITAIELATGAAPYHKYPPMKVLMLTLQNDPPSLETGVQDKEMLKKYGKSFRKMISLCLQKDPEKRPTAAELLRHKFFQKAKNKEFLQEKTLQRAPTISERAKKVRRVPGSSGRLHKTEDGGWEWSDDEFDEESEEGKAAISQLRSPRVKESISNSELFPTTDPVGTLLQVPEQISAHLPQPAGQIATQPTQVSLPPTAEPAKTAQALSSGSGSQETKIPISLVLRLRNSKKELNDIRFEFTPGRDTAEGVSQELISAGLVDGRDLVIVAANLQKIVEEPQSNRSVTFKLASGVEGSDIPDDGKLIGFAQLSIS

[10] = target: Serine/threonine-protein kinase PAK 4 (Homo sapiens, UniProt O96013); assay: Selectivity interaction (KinomeScan (DiscoverX)) EUB0001049a PAK4; settings: at 1 µM
[11] = target: SRSF protein kinase 2 (Homo sapiens) (UniProt P78362); assay: Selectivity interaction (KinomeScan (DiscoverX)) EUB0000666a SRPK2; settings: at 10 µM
Sequence of SRSF protein kinase 2 (Homo sapiens) (P78362 whole entry, looked up): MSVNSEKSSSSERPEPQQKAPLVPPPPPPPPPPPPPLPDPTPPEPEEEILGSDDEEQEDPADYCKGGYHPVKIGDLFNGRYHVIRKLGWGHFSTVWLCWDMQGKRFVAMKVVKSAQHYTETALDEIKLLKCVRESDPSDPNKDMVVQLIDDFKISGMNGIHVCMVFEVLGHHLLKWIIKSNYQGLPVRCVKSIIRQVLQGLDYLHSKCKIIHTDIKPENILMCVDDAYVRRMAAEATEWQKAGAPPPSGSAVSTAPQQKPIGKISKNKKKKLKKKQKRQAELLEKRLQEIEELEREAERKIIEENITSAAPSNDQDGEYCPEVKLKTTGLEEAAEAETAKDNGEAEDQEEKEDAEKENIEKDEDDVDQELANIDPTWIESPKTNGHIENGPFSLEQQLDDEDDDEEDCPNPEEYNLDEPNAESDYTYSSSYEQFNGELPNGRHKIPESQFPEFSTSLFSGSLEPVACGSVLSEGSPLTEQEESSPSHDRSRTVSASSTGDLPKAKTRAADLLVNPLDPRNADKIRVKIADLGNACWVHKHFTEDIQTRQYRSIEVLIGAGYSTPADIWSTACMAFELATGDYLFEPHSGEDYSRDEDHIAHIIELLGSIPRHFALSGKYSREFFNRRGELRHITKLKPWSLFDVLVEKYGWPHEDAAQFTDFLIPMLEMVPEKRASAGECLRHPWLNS

[12] = target: T3, Myosin light chain kinase family member 4 (Homo sapiens) (UniProt Q86YV6); assay: Selectivity interaction (LanthaScreen Eu Kinase Binding Assay) EUB0001632a MYLK4; settings: at 10 µM
T3 sequence (whole entry): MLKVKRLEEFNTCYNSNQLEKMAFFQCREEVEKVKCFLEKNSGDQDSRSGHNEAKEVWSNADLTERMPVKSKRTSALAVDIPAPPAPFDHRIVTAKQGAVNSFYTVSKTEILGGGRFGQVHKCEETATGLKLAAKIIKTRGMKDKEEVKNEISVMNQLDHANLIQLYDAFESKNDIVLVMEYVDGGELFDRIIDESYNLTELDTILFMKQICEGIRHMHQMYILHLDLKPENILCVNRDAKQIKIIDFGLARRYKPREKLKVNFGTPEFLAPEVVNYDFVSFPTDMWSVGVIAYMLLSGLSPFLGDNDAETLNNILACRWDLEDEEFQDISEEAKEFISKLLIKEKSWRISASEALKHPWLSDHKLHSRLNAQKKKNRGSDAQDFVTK

[13] = target: 5'-AMP-activated protein kinase catalytic subunit alpha-1 (Homo sapiens, UniProt Q13131); assay: Selectivity interaction (Kinase screening (Upstate/Millipore)) EUB0000604a PRKAA1
Sequence of 5'-AMP-activated protein kinase catalytic subunit alpha-1 (Q13131 whole entry, looked up): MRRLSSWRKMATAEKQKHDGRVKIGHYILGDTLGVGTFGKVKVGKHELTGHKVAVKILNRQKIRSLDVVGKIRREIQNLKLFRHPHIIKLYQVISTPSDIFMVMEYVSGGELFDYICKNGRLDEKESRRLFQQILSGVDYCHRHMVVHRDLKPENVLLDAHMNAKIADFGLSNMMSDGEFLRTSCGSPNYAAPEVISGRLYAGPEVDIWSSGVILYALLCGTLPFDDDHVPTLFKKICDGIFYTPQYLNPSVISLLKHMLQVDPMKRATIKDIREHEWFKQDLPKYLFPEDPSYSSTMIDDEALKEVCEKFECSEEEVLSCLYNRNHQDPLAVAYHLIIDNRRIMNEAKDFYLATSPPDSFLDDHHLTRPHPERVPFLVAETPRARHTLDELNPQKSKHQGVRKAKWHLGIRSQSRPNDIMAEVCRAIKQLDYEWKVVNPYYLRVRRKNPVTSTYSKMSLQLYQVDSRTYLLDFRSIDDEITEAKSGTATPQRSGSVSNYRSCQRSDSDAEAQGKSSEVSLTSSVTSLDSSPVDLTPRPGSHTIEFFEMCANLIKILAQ

Sequence of TGF-beta receptor type-2 (Homo sapiens) (P37173 whole entry): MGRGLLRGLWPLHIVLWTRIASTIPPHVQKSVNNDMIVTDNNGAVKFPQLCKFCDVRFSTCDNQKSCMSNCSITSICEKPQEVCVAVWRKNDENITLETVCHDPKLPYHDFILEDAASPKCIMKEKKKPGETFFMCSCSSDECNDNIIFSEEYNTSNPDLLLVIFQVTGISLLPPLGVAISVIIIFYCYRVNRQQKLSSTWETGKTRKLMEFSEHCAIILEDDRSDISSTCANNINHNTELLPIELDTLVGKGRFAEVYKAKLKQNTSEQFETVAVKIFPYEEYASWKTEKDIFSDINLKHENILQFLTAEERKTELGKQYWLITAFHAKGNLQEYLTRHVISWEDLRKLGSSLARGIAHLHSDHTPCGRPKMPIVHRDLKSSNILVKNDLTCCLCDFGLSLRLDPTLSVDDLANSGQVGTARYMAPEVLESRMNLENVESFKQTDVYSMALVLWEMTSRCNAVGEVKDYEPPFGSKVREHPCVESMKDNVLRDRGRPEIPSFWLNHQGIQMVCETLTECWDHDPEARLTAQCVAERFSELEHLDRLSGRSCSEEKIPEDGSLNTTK

Structure (SMILES): Nc1cnc(N2CCc3cc(S(=O)(=O)Nc4c(F)cc(Cl)cc4F)cc(N4CCCC4=O)c32)nc1 [TP-020n]
- % of control [1]: 92%

Structure (SMILES): N#Cc1cccc(-c2c[nH]c3ncnc(N4CCOCC4)c23)c1
- % of inhibition [2]: 20%
- % of inhibition [3]: 24%
- % of control [4]: 23%

Structure (SMILES): Cc1ccc(-c2ccc3c(ccc4sc5c(c43)NC[C@@H](C)NC5=O)n2)cn1
- % of inhibition [5]: 6%

Structure (SMILES): CC[C@@H]1[C@H](F)C(=O)N[C@@H]1COc1nccc2cc(C(N)=O)c(OC)cc12 [ZIMLOVISERTIB]
- % of inhibition [6]: 87.9%

Structure (SMILES): COc1cc(N(C)c2ccnc3ccc(C(F)(F)F)cc23)cc(OC)c1OC
- % binding [7]: 78%

Structure (SMILES): COc1cc(Nc2nc(C)cc(-c3cnn4nc(OC)ccc34)n2)cc(C(F)(F)F)c1
- % of control [8]: 77%
- % of control [9]: 83%
- % of control [10]: 88%

Structure (SMILES): O=C(NOC[C@H](O)CO)c1ccc(F)c(F)c1Nc1ccc(I)cc1F
- % of control [11]: 100%

Structure (SMILES): Cn1cc(-n2cnc3c(NCc4nc5cc(Cl)c(Cl)cc5[nH]4)nc(N4CCOCC4)nc32)cn1
- % of inhibition [12]: -25.4%

Structure (SMILES): Cc1cnc(Nc2ccc(F)cc2Cl)nc1-c1c[nH]c(C(=O)N[C@H](CO)c2cccc(Cl)c2)c1
- % of inhibition [13]: 5%
